Data: patent US20230391774A1, “Novel Compounds” (AC Immune SA, priority 2020, published 2023)
Entries after “also recorded” stand apart in the source; their conditions may differ. Structures can show the parent of a compound that is named as a salt.

What was measured:
[1] = target: T1, flTau aggregates (longest isoform of human Tau, 2N4R) (Homo sapiens, UniProt P10636); test: Full-length Tau (flTau) disaggregation assay by Thioflavin T (ThT); assay type: biochemical; conditions: ThT fluorescence; 60 nM flTau aggregates, 30 minutes at RT; read-out: flTau disaggregation EC50
T1 construct: 35 μM of recombinant full-length (fl) Tau in phosphate-buffered saline (PBS) were aggregated; purchased Biotechne; host or cells: bacteria
Summary of the method: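 Recombinant 2N4R Tau (35 μM) pre-aggregated 72 h at 37 °C with 35 μM heparin and 10 mM DTT under shaking. Aggregates (60 nM final) incubated 30 min at RT in PBS with compound (20–0.0012 μM), then ThT added; fluorescence read at ex 440/em 485 nm and EC50 fitted to one-site model.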

[2] = target: T2, Tau K18 fragment aggregates (amino acids 244 to 372 of human Tau441) (Homo sapiens, UniProt P10636); test: Tau K18 disaggregation assay by ThT; assay type: biochemical; conditions: ThT fluorescence; 2 μM K18 aggregates, 30 minutes at RT
T2 construct: encompassing amino acids 244 to 372 of the longest isoform (2N4R) of human Tau441; purchased Biotechne; host or cells: bacteria
Protocol: Tau K18 Disaggregation Assay by ThT
The Tau K18 fragment, encompassing amino acids 244 to 372 of the longest isoform (2N4R) of human Tau441, was expressed in bacteria and purified (Biotechne). For the K18 disaggregation assay by ThT, 35 μM of recombinant K18 in PBS were aggregated for 24 hours at 37° C. in presence of 25 μM of heparin (Sigma-Aldrich) and 10 mM of 1,4-Dithiothreito (DTT from Sigma-Aldrich) under shaking at 750 RPM. Compound 1 was dissolved in anhydrous dimethyl sulfoxide (DMSO, Sigma-Aldrich) to reach a concentration of 10 mM. K18 aggregates and serial dilutions of compounds were mixed together in PBS (volume 50 μL) to a final concentration of 2 μM of K18 aggregates and from 400 to 0.1 μM of Compound 1. The mixture was incubated for 30 minutes at room temperature (RT), then 40 μL of this mixture were transferred into a black 384-well plate assay (Perkin-Elmer) and mixed with 10 μL of 100 μM ThT in 250 mM glycine (both from Sigma-Aldrich) in PBS. Fluorescence (relative fluorescence units; RFU) was measured in monoplicate or duplicate on a Tecan reader (excitation: 440 nm; emission: 485 nm). Percentage of K18 disaggregation was then calculated and half maximal effective concentration (EC50) was determined using GraphPad Prism version 8 (GraphPad Software) assuming a one-binding site fitting model, see Table 3 and Table 4.

[3] = tested on: misfolded Tau in SH-SY5Y cell line overexpressing full-length human Tau P301L; test: Reduction of intracellular misfolded Tau; assay type: cell-based; conditions: 20 nM, 72 hours, differentiated P301L SH-SY5Y cells, MC1 antibody, vs DMSO control
Protocol: The SH-SY5Y cell line overexpressing the full-length form of human Tau carrying the P301L mutation were cultured in complete medium DMEM-F12 4.5 g/L Glutamax (Invitrogen), 15% FBS (Biochrom), 1% Peni/Strep (Invitrogen) supplemented with 2.5 μg/ml of G418 (Sigma-Aldrich) selection antibiotic. For the in vitro differentiation from neuroblastoma cells to neurons, cells were plated in 24-well plates (Costar 3337) on glass coverslips coated with Poly-D-Lysine at a seeding density of 2.5×10^3 cells. P301L SH-SY5Y cells were differentiated for 1 week at 37° C. in culture medium in presence of 10 μM retinoic acid (RA; Sigma, R2625). Every 48-72 h media was changed and fresh retinoic acid was added. For the treatment with compound 1, were dispensed on the cells at concentrations between 1-20 nM for 72 hours, with changing compounds every 24 h. After the incubation with Compound 1, cells were pre-fixed with 2% PFA for 5 min followed by a 15 min fixation with 4% PFA. […] Permeabilized fixed cells were then incubated overnight in 10% NGS/0.25% Triton X-100 in PBS with monoclonal anti-mouse MC1 antibody detected misfolded Tau (provided by Prof. Peter Davies, Albert Einstein College of Medicine, New York, USA) and polyclonal anti-rabbit total Tau (Abcam; ab64193) both diluted 1:1000.

[4] = tested on: rTg4510 mice; test: In vivo efficacy: aggregated Tau in cortical total brain homogenate (AlphaLISA); conditions: 100 mg/kg bi-daily by gavage for 4 weeks
From the text: In Vivo Efficacy of the Compounds of the Present Invention
Double transgenic rTg4510 mice express the full-length human Tau carrying the P301L mutation (Tau4RON-P301L) under the control of the tet-inducible (or tetracycline-inducible system) CaMKII promoter (Ramsden et al., J. Neurosci., 2005·25(46):10637-10647). Single transgenic mice expressing only the tetracycline-controlled transactivator (tTA) were used as genotype controls. The study comprised 4 treatment groups (n=15 female for tTa group and n=33 female mice/group for the treatment) with the following group distribution (see Table 5). Mice were distributed over 5 cohorts and cages were composed with an average of 3 mice per cage. Compounds or vehicle control were administered bi-daily by gavage for 4 weeks starting at the age of 5 months. […]
To prepare cortical total brain homogenates (Cx-TBH), frozen brains were resuspended in 9 volumes/weight of ice-cold homogenization buffer [25 mM Tris-HCl pH 7.4, 150 mM NaCl, 1 mM EDTA, 1 mM EGTA containing phosphatase inhibitors (30 mM NaF, 0.2 mM Na3VO4, 1 nM Okadaic acid, 1 mM PMSF, 5 mM Na4P2O7) and protease inhibitor cocktail (Complete™, Roche)] and homogenized in Eppendorf tubes with a VWR pellet mixer (47747-370). […] Aggregated Tau in total cortical homogenate was quantified using the following antibody pairs: HT7-Acceptor beads+biotin (BT)-HT7-donor beads. […]

[5] = tested on: rTg4510 mice; test: In vivo efficacy: NFTs and neuroinflammation markers by immunohistochemistry; conditions: 100 mg/kg, immunohistochemistry (data not shown)
From the text: Double transgenic rTg4510 mice express the full-length human Tau carrying the P301L mutation (Tau4RON-P301L) under the control of the tet-inducible (or tetracycline-inducible system) CaMKII promoter (Ramsden et al., J. Neurosci., 2005·25(46):10637-10647). Single transgenic mice expressing only the tetracycline-controlled transactivator (tTA) were used as genotype controls. The study comprised 4 treatment groups (n=15 female for tTa group and n=33 female mice/group for the treatment) with the following group distribution (see Table 5). Mice were distributed over 5 cohorts and cages were composed with an average of 3 mice per cage. Compounds or vehicle control were administered bi-daily by gavage for 4 weeks starting at the age of 5 months.
After incubation of this mixture at room temperature for 1 hour, 25 μL of Streptavidin Donor beads (Perkin Elmer) at 25 μg/mL were added in the dark. Plates were analyzed after 30 minutes incubation using the EnSpire Alpha instrument and EnSpire Workstation version 3.00.

T1 sequence (P10636 1-441 isoform P10636-8): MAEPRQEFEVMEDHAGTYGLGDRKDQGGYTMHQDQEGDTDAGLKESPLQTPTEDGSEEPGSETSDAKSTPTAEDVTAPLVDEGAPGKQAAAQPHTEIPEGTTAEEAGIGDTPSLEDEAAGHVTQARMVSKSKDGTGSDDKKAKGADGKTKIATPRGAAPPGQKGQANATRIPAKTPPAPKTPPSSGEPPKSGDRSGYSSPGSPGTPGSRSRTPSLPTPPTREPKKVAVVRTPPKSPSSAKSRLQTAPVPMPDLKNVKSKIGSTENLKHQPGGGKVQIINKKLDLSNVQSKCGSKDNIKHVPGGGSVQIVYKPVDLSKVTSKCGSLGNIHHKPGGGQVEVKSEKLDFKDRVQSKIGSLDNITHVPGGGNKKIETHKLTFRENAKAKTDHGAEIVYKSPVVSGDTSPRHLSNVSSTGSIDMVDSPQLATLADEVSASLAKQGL
T2 sequence (P10636 561-689): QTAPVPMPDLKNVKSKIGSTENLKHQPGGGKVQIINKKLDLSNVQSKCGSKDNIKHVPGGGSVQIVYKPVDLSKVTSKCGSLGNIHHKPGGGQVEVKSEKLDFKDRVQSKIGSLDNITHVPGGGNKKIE

Row | SMILES | EC50 [1] [µM] | EC50 [2] [µM] | further results
1 | c1ccc2c(C3CCN(c4ccc5oc(N6CCOCC6)nc5c4)CC3)n[nH]c2c1 [Example 1, 5-(4-(1H-indazol-3-yl)piperidin-1-yl)-2-morpholinobenzo[d]oxazole] | < 1 | < 1 | Reduction of intracellular misfolded Tau [3]: Reduction of intracellular misfolded Tau; also recorded: significantly different from DMSO control; aggregated Tau in Cortical Total brain homogenate (Cx-TBH) ([4]; 100 mg/kg): significantly decreased; aggregated Tau in Cortical Total brain homogenate (Cx-TBH) ([4]; listed as Compound 1, 100 mg/kg): decreased of aggregated Tau; NeuroFibrillary Tangles (NFTs) [5]: significant decrease; neuroinflammation marker CD68 [5]: significant decrease; neuroinflammation marker Iba1 [5]: significant decrease
2 | c1ccc2c(C3CCN(c4ccc5oc(N6CCOCC6)nc5c4)C3)n[nH]c2c1 (centres unmarked) [Example 38, 5-(3-(1H-indazol-3-yl)pyrrolidin-1-yl)-2-morpholinobenzo[d]oxazole] | 1 to 10 | 1 to 10 | 
3 | c1ccc2c(C3CCN(c4cnc5nc(N6CCOCC6)sc5c4)CC3)n[nH]c2c1 [Example 41, 4-(6-(4-(1H-indazol-3-yl)piperidin-1-yl)thiazolo[4,5-b]pyridin-2-yl)morpholine] | 1 to 10 | 1 to 10 | 
4 | c1ccc2c(C3CCN(c4ccc5oc(N6CCOCC6)nc5n4)CC3)n[nH]c2c1 [Example 43, 5-(4-(1H-indazol-3-yl)piperidin-1-yl)-2-morpholinooxazolo[4,5-b]pyridine] | 1 to 10 | 1 to 10 | 
5 | c1ccc2c(C3CCN(c4ccc5nc(N6CCOCC6)sc5c4)CC3)n[nH]c2c1 [Example 44, 4-(6-(4-(1H-indazol-3-yl)piperidin-1-yl)benzo[d]thiazol-2-yl)morpholine] | 1 to 10 | 1 to 10 | 
6 | Cn1cc(C#Cc2ccc3oc(N4CCOCC4)nc3c2)c2cc(F)cnc21 [Example 46, 5-((5-fluoro-1-methyl-1H-pyrrolo[2,3-b]pyridin-3-yl)ethynyl)-2-morpholinobenzo[d]oxazole] | 1 to 10 | 1 to 10 | 
7 | c1ccc2c(C3CCN(c4cnc5nc(N6CCOCC6)oc5c4)CC3)n[nH]c2c1 [Example 47, 6-(4-(1H-indazol-3-yl)piperidin-1-yl)-2-morpholinooxazolo[4,5-b]pyridine] | 1 to 10 | 10 to 50 | 
8 | C1=C(c2n[nH]c3ccccc23)CCN(c2ccc3oc(N4CCOCC4)nc3c2)C1 [Example 50, 5-(4-(1H-indazol-3-yl)-3,6-dihydropyridin-1(2H)-yl)-2-morpholinobenzo[d]oxazole] | < 1 | < 1 | 

More lines, main results first:

Row | EC50 [1] [µM] | EC50 [2] [µM] | SMILES | further results
9 | 1 to 10 | 10 to 50 | Cn1cc(C2CCN(c3ccc4oc(N5CCOCC5)nc4c3)CC2)c2cc(F)ccc21 [Example 51, 5-(4-(5-fluoro-1-methyl-1H-indol-3-yl)piperidin-1-yl)-2-morpholinobenzo[d]oxazole] | 
10 | 1 to 10 | 1 to 10 | COc1ccc2c(C3CCN(c4ccc5oc(N6CCOCC6)nc5c4)CC3)c[nH]c2n1 [Example 104, 5-(4-(6-methoxy-1H-pyrrolo[2,3-b]pyridin-3-yl)piperidin-1-yl)-2-morpholinobenzo[d]oxazole] | 
11 | 1 to 10 | 10 to 50 | Cn1cc(C2CCN(c3cnc4nc(N5CCOCC5)sc4c3)CC2)c2cc(F)cnc21 [Example 109, 4-(6-(4-(5-fluoro-1-methyl-1H-pyrrolo[2,3-b]pyridin-3-yl)piperidin-1-yl)thiazolo[4,5-b]pyridin-2-yl)morpholine hydrochloride] | 
12 | 1 to 10 | 10 to 50 | Cn1cc(C2CCN(c3cc4sc(N5CCOCC5)nc4cn3)CC2)c2cc(F)cnc21 [Example 110, 4-(6-(4-(5-fluoro-1-methyl-1H-pyrrolo[2,3-b]pyridin-3-yl)piperidin-1-yl)thiazolo[4,5-c]pyridin-2-yl)morpholine hydrochloride] | 
13 | 1 to 10 | 1 to 10 | Cn1cc(C2CCN(c3ccc4nc(N5CCOCC5)oc4c3)CC2)c2cc(F)cnc21 [Example 111, 6-(4-(5-fluoro-1-methyl-1H-pyrrolo[2,3-b]pyridin-3-yl)piperidin-1-yl)-2-morpholinobenzo[d]oxazole hydrochloride] | 
